PubChem BioAssay (NCI)
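Compound exposure: 48 hours, 5 concentrations, 96-well plates. At the GI50, growth is halved. TGI: total growth inhibition.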

Experiments:
Experiment in all cases: inhibition of tumour cell growth, NCI panel, 48 h
LXFL 529 NSCLC = system: LXFL 529 NSCLC
DMS 114 small cell lung = system: DMS 114 small cell lung
SN12C renal = system: SN12C renal
MALME-3M melanoma = system: MALME-3M melanoma
LOX IMVI melanoma = system: LOX IMVI melanoma
DLD-1 colon = system: DLD-1 colon
SK-MEL-2 melanoma = system: SK-MEL-2 melanoma
SF-539 CNS = system: SF-539 CNS
DMS 273 small cell lung = system: DMS 273 small cell lung
CCRF-CEM leukemia = system: CCRF-CEM leukemia
DU-145 prostate = system: DU-145 prostate

Structure (SMILES) | TGI (LXFL 529 NSCLC) [µM] | TGI (DMS 114 small cell lung) [µM] | TGI (SN12C renal) [µM] | TGI (MALME-3M melanoma) [µM] | TGI (LOX IMVI melanoma) [µM] | TGI (DLD-1 colon) [µM] | TGI (SK-MEL-2 melanoma) [µM] | TGI (SF-539 CNS) [µM] | TGI (DMS 273 small cell lung) [µM] | TGI (CCRF-CEM leukemia) [µM] | TGI (DU-145 prostate) [µM] | GI50 (CCRF-CEM leukemia) [µM]
COc1cc([C@H]2c3cc4c(cc3[C@H](NCc3ccc(F)cc3)C3COC(=O)[C@H]32)OCO4)cc(OC)c1O (stereo not given in full) | > 100 | 18.7 | 6.67 | 19.5 | 17 | > 100 | 33.1 | 5.07 | 13.8 | > 100 |  | 
O=C(Nc1c(Cl)cc([N+](=O)[O-])cc1Cl)C(=O)C(C(=O)c1ccncc1)C1OC(=O)c2ccccc21 (stereo not given) | > 100 | > 100 | > 100 | > 100 | > 100 | > 100 |  |  | > 100 | > 100 |  | 
COc1ccc(C2NC(c3ccc(OC)cc3)C(C)C(=O)C2C)cc1 (stereo not given) | > 100 | > 100 | > 100 | > 100 | > 100 | > 100 | > 100 | > 100 | > 100 | > 100 |  | 
O=C(/C=N/O)Nc1cccc(Cl)c1I | > 100 | 79.2 | > 100 | > 100 | > 100 | > 100 | > 100 |  | > 100 | > 100 |  | 
Cc1ccc(-n2cc(/C(N)=N/O)c3ccccc3c2=O)cc1 | > 100 | > 100 | > 100 | > 100 | > 100 |  |  | > 100 | > 100 | > 100 |  | 
c1ccc2c(c1)n1nnnc1c1nnnn21 | > 100 | > 100 | > 100 | > 100 | > 100 | > 100 | > 100 | > 100 | > 100 | > 100 |  | 
O=S1(=O)CS(=O)(=O)OCCCCCO1 | > 100 | > 100 | > 100 | > 100 | > 100 | > 100 | > 100 |  | > 100 | > 100 |  | 
CCOC(=O)c1cnc2c(ccc3ncccc32)c1OCC | > 100 | > 100 | > 100 | > 100 | > 100 | > 100 | > 100 | > 100 | > 100 | > 100 |  | 
O=C(CC/C(CC(=O)c1ccc(Cl)cc1)=N\O)Nc1cccc(Cl)c1 | > 100 | > 100 | > 100 | > 100 | > 100 | > 100 | > 100 | > 100 | > 100 | > 100 |  | 
Cc1ccccc1NC(=O)C(=O)CC(=O)c1sc(-n2nc(-c3ccccc3)cc2-c2ccccc2)nc1C | > 100 | > 100 | > 100 | > 100 | > 100 | > 100 | > 100 | > 100 | > 100 | > 100 |  | 
CCCC/C=C1/CCC(CN(C)C)C1=O (stereo not given) | 1.36 | 3.92 | 3.63 | 4.07 | 2.91 | 2.16 | 10.1 | 6.05 | 5.76 | 1.76 | 28.9 | 0.424
CCOC(=O)C(=O)Nc1nc2ccc(OC)cc2s1 | > 100 |  | > 100 | > 100 | > 100 | > 100 | > 100 | > 100 | > 100 | > 100 |  | 
CNC(=O)N(CCCCC(NC(C)=O)C(=O)NCc1ccccc1)Cc1ccccc1 (stereo not given) | > 100 | > 100 | > 100 | > 100 | > 100 | > 100 | > 100 | > 100 | > 100 | > 100 |  | 
NC(=O)N1N=C2c3ccccc3OC[C@H]2[C@@H]1c1ccccc1 | > 100 | 34.2 | > 100 | > 100 | > 100 | > 100 | > 100 | 19.1 | > 100 | > 100 |  | 
